The values below come from US20030216479A1, “Novel compositions comprising 2,2-Bis (4-hydroxy-3-methylphenyl) heptane and uses thereof” (priority 2001, published 2003).

As usually defined, the melting point is the temperature, or range, at which the solid turns liquid.

Structures are written as SMILES. Converted amounts (≈) assume the structure as drawn.

One series relates to S. epidermidis. The series can be described thus: MIC antibacterial activity. The class given is cell-based. To be noted: Staphylococcus epidermidis.
The test system of a further series is S. pneumoniae. The series can be described thus: MIC antibacterial activity. The class given is cell-based. To be noted: Streptococcus pneumoniae.
A further series concerns S. pyogenes. The experiment in a line: MIC antibacterial activity. It counts as cell-based. To be noted: Streptococcus pyogenes.
Another series relates to E. faecalis. The experiment in a line: MIC antibacterial activity. The class given is cell-based. As to conditions: Enterococcus faecalis.
Another series deals with C. diphtheriae. The series can be described thus: MIC antibacterial activity. To be noted: Corynebacterium diphtheriae. It counts as cell-based.
The subject of the next series is M. smegmatis. The experiment in a line: MIC antibacterial activity. It counts as cell-based. To be noted: Mycolicibacterium smegmatis.
The next series deals with M. catarrhalis. The experiment in a line: MIC antibacterial activity. It counts as cell-based. To be noted: Moraxella catarrhalis.
A further series has as its system H. influenzae. The experiment in a line: MIC antibacterial activity. To be noted: Haemophilus influenzae. It counts as cell-based.
A further series has as its system H. pylori. The series can be described thus: MIC antibacterial activity. The class given is cell-based. To be noted: Helicobacter pylori.
For series [1], the system named is methicillin-sensitive Staphylococcus aureus. The series can be described thus: Wound healing model (FIG. 1). It counts as in vivo. To be noted: methicillin-susceptible Staphylococcus aureus; mice; topical twice daily from 24 h; sampled 72 h post-infection. As to the method: (§1) FIG. 1. Efficacy of a composition comprising 2,2-Bis(4-hydroxy-3-methylphenyl)heptane in the wound healing model. A defined inoculum of approximately 10^5 CFU of methicillin-sensitive Staphylococcus aureus in 20 μl culture medium was pipetted into a wound approximately 1 cm^2 created by removal of the epidermis from the shaved backs of mice. After 24 hours, the composition comprising 2,2-Bis(4-hydroxy-3-methylphenyl)heptane, placebo control or positive control ointment was applied twice daily. Approximately, seventy two hours post-infection, the wound was sampled and appropriate dilutions plated on nutritive agars for determination of microbial burden. The number of colony forming units (CFU) of methicillin-sensitive Staphylococcus aureus per wound is shown.
(§2) The wound healing model, using methods generally known by those skilled in the art, is used to measure the efficacy of topically applied compounds in suitable vehicles against any bacteria, for example, Staphylococcus epidermis, Staphylococcus aureus, Streptococcus pyrogenes, Haemophilus influenzae, or mixtures thereof. By removing several epidermal layers by surgical procedure, a superficial wound of approximately 1 cm^2 was created. About 10 ^5 cfu/20 ul of culture medium of any bacteria, for example, S aureus, was applied to the wound. […]

Series [2] has as its system methicillin-resistant Staphylococcus aureus. The experiment in a line: Wound healing model (FIG. 2). The class given is in vivo. To be noted: mice, topical twice daily from 24 h, sampled 72 h post-infection. As to the method:
as §1, with “2.” for “1.”, “methicillin-resistant” for “methicillin-sensitive”
as §2

Series [3] has as its system Staphylococcus epidermidis. The experiment in a line: Wound healing model (FIG. 3). It counts as in vivo. As to conditions: mice, topical twice daily from 24 h, sampled 72 h post-infection. On the procedure:
as §1, with “3.” for “1.”, “epidermis” for “aureus”
as §2

`CCCCCC(C)(c1ccc(O)c(C)c1)c1ccc(O)c(C)c1` [2,2-Bis(4-hydroxy-3-methylphenyl)heptane]: the melting point is 99 to 101 °C. The MIC in the series with S. epidermidis was 2 µg/mL (≈ 6.4 µM). In addition, in the series on S. pneumoniae, the MIC was 6 µg/mL (≈ 19.2 µM). Also, the MIC against S. pyogenes was found to be 6 µg/mL (≈ 19.2 µM). In the series with E. faecalis, this molecule came in with an MIC of 2 µg/mL (≈ 6.4 µM). Further, the MIC against C. diphtheriae is 2 µg/mL (≈ 6.4 µM). The MIC in the series with M. smegmatis is 2 µg/mL (≈ 6.4 µM). The molecule further came in with an MIC against M. catarrhalis of 2 µg/mL (≈ 6.4 µM). For the same molecule, the MIC in the series with H. influenzae stood at 6 µg/mL (≈ 19.2 µM). Moreover, the MIC against H. pylori turned out to be 16 µg/mL (≈ 51.2 µM). Also, in series [1], the “reducing the population levels of pathogenic bacteria (CFU per wound)” value (“reducing the population levels … (CFU per wound)” below) is “efficacious”. In addition, the “reducing the population levels … (CFU per wound)” value in series [2] is “efficacious”. Besides, in series [3], the “reducing the population levels … (CFU per wound)” value is “efficacious”.
